Experimental data as given in ChEMBL document CHEMBL4396908, “Sulfamates in drug design and discovery: Pre-clinical and clinical investigations” (Eur J Med Chem, 2019).

Assays:
Carbonic anhydrase 9 = Carbonic anhydrase 9 (Homo sapiens, UniProt Q16790); test: Inhibition of human carbonic anhydrase 9
Carbonic anhydrase 2 [1] = target: T1, Carbonic anhydrase 2 (Homo sapiens, UniProt P00918); test: Inhibition of human carbonic anhydrase 2
Steryl-sulfatase [2] = target: T2, Steryl-sulfatase (Homo sapiens, UniProt P08842); test: Inhibition of steroid sulfatase (unknown origin)
T2 sequence (P08842 whole entry): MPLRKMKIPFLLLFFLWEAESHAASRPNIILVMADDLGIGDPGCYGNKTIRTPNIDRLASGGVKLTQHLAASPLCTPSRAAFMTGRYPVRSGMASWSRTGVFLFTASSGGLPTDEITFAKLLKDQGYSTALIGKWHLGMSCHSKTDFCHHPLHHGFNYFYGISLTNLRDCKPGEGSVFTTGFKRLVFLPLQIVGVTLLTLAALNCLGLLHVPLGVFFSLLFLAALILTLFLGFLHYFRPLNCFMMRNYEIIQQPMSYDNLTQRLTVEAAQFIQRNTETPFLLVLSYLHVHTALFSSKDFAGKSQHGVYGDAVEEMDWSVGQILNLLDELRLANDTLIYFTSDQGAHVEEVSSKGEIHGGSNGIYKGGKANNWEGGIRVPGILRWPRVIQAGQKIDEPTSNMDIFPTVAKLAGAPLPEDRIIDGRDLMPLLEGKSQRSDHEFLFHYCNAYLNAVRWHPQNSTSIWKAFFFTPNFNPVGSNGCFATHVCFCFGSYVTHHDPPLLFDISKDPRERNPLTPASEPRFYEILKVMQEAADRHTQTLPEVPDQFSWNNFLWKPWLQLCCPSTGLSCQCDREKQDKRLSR

Steryl-sulfatase [3] = target: T2, Steryl-sulfatase; test: Inhibition of human placental steroid sulfatase expressed in HEK293 cells using [3H] E1S as substrate after 2 hrs by liquid scintillation counting method; type: cell-based
MDA-MB-231 [4] = test: Antiproliferative activity against human MDA-MB-231 cells; type: functional, cell-based
MCF7 [5] = test: Antiproliferative activity against human MCF7 cells; type: functional, cell-based
Carbonic anhydrase 4 = Carbonic anhydrase 4 (Homo sapiens, UniProt P22748); test: Inhibition of human carbonic anhydrase 4
Steryl-sulfatase [6] = target: T2, Steryl-sulfatase; test: Inhibition of human placental steroid sulfatase
Rattus norvegicus [7] = test: In vivo inhibition of steroid sulfatase in Wistar rat at 10 mg/kg, po relative to control; type: functional
Rattus norvegicus [8] = test: In vivo inhibition of aromatase in Wistar rat at 10 mg/kg, po after 3 hrs relative to control; type: functional
Rattus norvegicus [9] = species on record: Rattus norvegicus; test: animal or person; settings: Wistar, 3 h
Rattus norvegicus [10] = test: In vivo inhibition of steroid sulfatase in Wistar rat at 10 mg/kg, po after 3 hrs relative to control; type: functional
MCF7 [11] = test: Antiproliferative activity against human MCF7 cells at 1 uM relative to control; type: functional
Homo sapiens = species on record: Homo sapiens; test: Selectivity ratio of IC50 for human carbonic anhydrase 1 to IC50 for human carbonic anhydrase 9
Steryl-sulfatase [12] = target: T2, Steryl-sulfatase; test: Inhibition of steroid sulfatase derived form human placental microsomes; set-up: species or system Placenta
Steryl-sulfatase [13] = target: T2, Steryl-sulfatase; test: Inhibition of steroid sulfatase in human MCF7 cells; type: cell-based
MCF7 [14] = test: Antitumor activity against human MCF7 cells xenografted in MF-1 nude mouse assessed as tumor growth inhibition at 5 mg/kg, po treated for 4 weeks in presence of 2-deoxy-D-glucose by immunohistochemistry relative to control; type: functional; settings: 672 h, read-out: TGI
MDA-MB-231 [15] = test: Antiproliferative activity against estrogen receptor-negative human MDA-MB-231 cells; type: functional, cell-based
MCF7 [16] = test: Antiproliferative activity against estrogen receptor-positive human MCF7 cells; type: functional, cell-based
Rattus norvegicus [17] = test: In vivo inhibition of steroid sulfatase in Wistar rat assessed as enzyme recovery at 10 mg/kg, sc single dose treated for 3 days measured after 1 week relative to control; type: functional; set-up: scale not given: the % may be the effect or the level left
Rattus norvegicus [18] = test: In vivo inhibition of steroid sulfatase in Wistar rat assessed as enzyme recovery at 10 mg/kg, sc single dose treated for 10 days measured after 15 days relative to control; type: functional; set-up: scale not given: the % may be the effect or the level left
Acetylcholinesterase = Acetylcholinesterase (Electrophorus electricus, UniProt O42275); test: Inhibition of electric ee AChE using acetylthiocholine iodide as substrate preincubated for 15 mins followed by substrate addition by Ellman's method
Carbonic anhydrase 1 = Carbonic anhydrase 1 (Homo sapiens, UniProt P00915); test: Inhibition of human carbonic anhydrase 1 using p-nitrophenylacetate as substrate after 3 mins
Cholinesterase = Cholinesterase (Equus caballus, UniProt P81908); test: Inhibition of equine BChE using butyrylthiocholine iodide as substrate preincubated for 15 mins followed by substrate addition by Ellman's method
Carbonic anhydrase 2 [19] = target: T1, Carbonic anhydrase 2; test: Inhibition of human carbonic anhydrase 2 using p-nitrophenylacetate as substrate after 3 mins
Steryl-sulfatase [20] = target: T2, Steryl-sulfatase; test: Inhibition of steroid sulfatase (unknown origin) expressed in CHO cells; type: cell-based
Steryl-sulfatase [21] = target: T2, Steryl-sulfatase; test: Inhibition of steroid sulfatase (unknown origin) expressed in human MCF7 cells; type: cell-based

Sequence of Carbonic anhydrase 4 (P22748 whole entry): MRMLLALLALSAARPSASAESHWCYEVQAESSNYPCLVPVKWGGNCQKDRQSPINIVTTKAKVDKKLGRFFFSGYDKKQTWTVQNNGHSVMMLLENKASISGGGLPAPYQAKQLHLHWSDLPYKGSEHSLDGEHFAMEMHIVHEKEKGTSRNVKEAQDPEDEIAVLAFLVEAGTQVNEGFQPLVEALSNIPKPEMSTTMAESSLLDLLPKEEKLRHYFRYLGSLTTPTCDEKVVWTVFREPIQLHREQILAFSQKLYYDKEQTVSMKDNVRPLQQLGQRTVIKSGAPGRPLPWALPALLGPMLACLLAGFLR
Sequence of Acetylcholinesterase (O42275 whole entry): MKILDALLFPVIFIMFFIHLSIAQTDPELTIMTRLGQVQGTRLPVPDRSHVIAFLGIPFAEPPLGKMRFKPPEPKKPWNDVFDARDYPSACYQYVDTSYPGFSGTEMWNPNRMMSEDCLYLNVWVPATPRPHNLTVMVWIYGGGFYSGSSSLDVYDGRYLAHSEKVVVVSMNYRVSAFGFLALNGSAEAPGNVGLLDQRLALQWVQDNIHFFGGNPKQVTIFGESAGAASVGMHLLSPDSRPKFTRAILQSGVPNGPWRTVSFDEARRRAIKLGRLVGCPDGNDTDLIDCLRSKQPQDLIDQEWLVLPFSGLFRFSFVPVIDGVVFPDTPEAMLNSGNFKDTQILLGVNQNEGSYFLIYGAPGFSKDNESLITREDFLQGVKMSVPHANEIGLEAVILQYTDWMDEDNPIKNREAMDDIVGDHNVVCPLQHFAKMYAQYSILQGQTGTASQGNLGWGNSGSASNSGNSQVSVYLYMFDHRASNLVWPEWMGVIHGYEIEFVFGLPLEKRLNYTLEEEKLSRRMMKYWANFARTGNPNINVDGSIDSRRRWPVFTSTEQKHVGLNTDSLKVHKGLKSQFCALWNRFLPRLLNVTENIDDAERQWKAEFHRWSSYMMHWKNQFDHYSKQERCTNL
Sequence of Cholinesterase (P81908 whole entry): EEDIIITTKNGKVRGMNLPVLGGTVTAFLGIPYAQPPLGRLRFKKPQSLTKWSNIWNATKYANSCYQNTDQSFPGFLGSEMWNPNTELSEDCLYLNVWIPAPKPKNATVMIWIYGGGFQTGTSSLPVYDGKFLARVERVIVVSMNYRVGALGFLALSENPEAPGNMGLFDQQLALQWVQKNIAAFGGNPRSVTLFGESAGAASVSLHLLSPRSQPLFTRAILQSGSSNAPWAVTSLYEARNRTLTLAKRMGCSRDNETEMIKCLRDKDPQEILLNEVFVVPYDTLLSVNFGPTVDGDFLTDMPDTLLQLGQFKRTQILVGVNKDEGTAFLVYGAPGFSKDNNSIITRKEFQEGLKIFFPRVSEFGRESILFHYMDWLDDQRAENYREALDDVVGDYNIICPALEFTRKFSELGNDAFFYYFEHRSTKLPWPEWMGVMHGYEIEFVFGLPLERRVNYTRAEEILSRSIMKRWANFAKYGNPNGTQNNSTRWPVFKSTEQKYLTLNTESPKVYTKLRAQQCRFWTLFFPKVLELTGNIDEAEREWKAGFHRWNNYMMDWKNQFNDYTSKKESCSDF
Sequence of Carbonic anhydrase 1 (P00915 whole entry): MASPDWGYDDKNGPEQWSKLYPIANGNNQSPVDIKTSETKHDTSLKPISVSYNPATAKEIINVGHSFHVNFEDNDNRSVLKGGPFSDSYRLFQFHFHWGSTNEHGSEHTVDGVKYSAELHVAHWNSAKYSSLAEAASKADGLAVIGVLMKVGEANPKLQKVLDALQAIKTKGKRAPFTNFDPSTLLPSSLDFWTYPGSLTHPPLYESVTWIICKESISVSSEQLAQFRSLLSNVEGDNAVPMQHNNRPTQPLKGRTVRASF

Cc1ccc(/C=C2/SC(Nc3ccc(OS(N)(=O)=O)cc3)=NC2=O)cc1
Ki (Carbonic anhydrase 9): 0.0176 to 0.0733 µM
Ki (Carbonic anhydrase 2 [1]): 0.0287 to 0.0843 µM

NS(=O)(=O)Oc1ccc(NC2=NC(=O)/C(=C\c3ccc(C(F)(F)F)cc3)S2)cc1
Ki (Carbonic anhydrase 9): 0.0176 to 0.0733 µM
Ki (Carbonic anhydrase 2 [1]): 0.0287 to 0.0843 µM

NS(=O)(=O)Oc1ccc2c3c(c(=O)oc2c1)CCCCCC3
IC50 (Steryl-sulfatase [2]): 0.001 µM

CCCCCCC(O)(CCCCc1ccc(OS(N)(=O)=O)cc1)c1ccc(C(C)(C)C)cc1 (centres undefined)
IC50 (Steryl-sulfatase [3]): 0.0004 µM

CCc1cc2c(cc1OS(N)(=O)=O)CC[C@@H]1[C@@H]2CC[C@]2(C)[C@@H](OS(N)(=O)=O)CC[C@@H]12
IC50 (MDA-MB-231 [4]): 0.08 µM
IC50 (MCF7 [5]): 0.07 µM

NS(=O)(=O)Oc1ccc(NC2=NC(=O)/C(=C\c3cccc4ccccc34)S2)cc1
Ki (Carbonic anhydrase 9): 0.0176 to 0.0733 µM
Ki (Carbonic anhydrase 2 [1]): 0.0287 to 0.0843 µM

COc1cc(/C=C2/SC(Nc3ccc(OS(N)(=O)=O)cc3)=NC2=O)cc(OC)c1OC
Ki (Carbonic anhydrase 9): 0.0176 to 0.0733 µM
Ki (Carbonic anhydrase 2 [1]): 0.0287 to 0.0843 µM
Ki (Carbonic anhydrase 4): 0.0423 µM

NS(=O)(=O)Oc1ccc(NC2=NC(=O)/C(=C\c3ccc(F)cc3)S2)cc1
Ki (Carbonic anhydrase 9): 0.0176 to 0.0733 µM
Ki (Carbonic anhydrase 2 [1]): 0.0287 to 0.0843 µM

NS(=O)(=O)Oc1ccc(CCNC(=O)C(F)(F)C(F)(F)C(F)(F)C(F)(F)C(F)(F)C(F)(F)C(F)(F)C(F)(F)C(F)(F)C(F)(F)F)cc1
IC50 (Steryl-sulfatase [6]): 2.18 µM

N#Cc1ccc(N(Cc2ccc(OS(N)(=O)=O)cc2)n2cnnc2)cc1
inhibition in vivo at 10 mg/kg (Rattus norvegicus [7]): > 98%

NS(=O)(=O)Oc1ccc(NC2=NC(=O)/C(=C\c3ccccc3)S2)cc1
Ki (Carbonic anhydrase 9): 0.0176 to 0.0733 µM
Ki (Carbonic anhydrase 2 [1]): 0.0287 to 0.0843 µM
Ki (Carbonic anhydrase 4): 0.0761 µM

NS(=O)(=O)Oc1ccc(NC2=NC(=O)/C(=C\c3ccc([N+](=O)[O-])cc3)S2)cc1
Ki (Carbonic anhydrase 9): 0.0176 to 0.0733 µM
Ki (Carbonic anhydrase 2 [1]): 0.0287 to 0.0843 µM

N#Cc1ccc(N(Cc2ccc3c(Br)c(OS(N)(=O)=O)ccc3c2)n2cnnc2)cc1
inhibition in vivo at 10 mg/kg (Rattus norvegicus [8]): 93%
IC50 (Rattus norvegicus [9]): 0.205 µM
inhibition in vivo at 10 mg/kg (Rattus norvegicus [10]): 93%

Cc1cc(=O)oc2cc(OS(N)(=O)=O)ccc12
IC50 (Steryl-sulfatase [2]): 0.03 µM

COc1cc2c(cc1OS(N)(=O)=O)CC[C@@H]1[C@@H]2CC[C@]2(C)C(=O)CC[C@@H]12
Activity (MCF7 [11]): 52%

NS(=O)(=O)Oc1ccc2ccc(=O)oc2c1
IC50 (Steryl-sulfatase [6]): 2.13 µM

NS(=O)(=O)Oc1ccc(NC2=NC(=O)/C(=C\c3ccc(Cl)cc3)S2)cc1
Ki (Carbonic anhydrase 9): 0.0176 to 0.0733 µM
Ki (Carbonic anhydrase 2 [1]): 0.0287 to 0.0843 µM

NS(=O)(=O)Oc1ccc(/C=C/C(=O)C[C@@H]2O[C@H](CO)[C@@H](O)[C@H](O)[C@H]2O)cc1
Ratio IC50 (Homo sapiens): 3.38
IC50 (Carbonic anhydrase 9): 0.101 µM

CCCCCCc1c(C)c2ccc(OS(N)(=O)=O)cc2oc1=O
IC50 (Steryl-sulfatase [12]): 0.032 µM
IC50 (Steryl-sulfatase [13]): 0.00068 µM

COc1cc2c(cc1OS(N)(=O)=O)CC[C@@H]1[C@@H]2CC[C@]2(C)[C@@H](OS(N)(=O)=O)CC[C@@H]12
inhibition in vivo at 5 mg/kg (MCF7 [14]): 76%
IC50 (MDA-MB-231 [15]): 0.29 µM
IC50 (MCF7 [16]): 0.25 µM

C[C@]12CC[C@@H]3c4ccc(OS(N)(=O)=O)cc4CC[C@H]3[C@@H]1CCC2=O [EMATE]
Activity (Rattus norvegicus [17]): 10 - 15%
Activity (Rattus norvegicus [18]): 30%

CC(C)[C@@H]1CC[C@@H](C)C[C@H]1OS(=O)(=O)NC(c1ccccc1)c1ccccc1
IC50 (Acetylcholinesterase): 0.206 µM
IC50 (Carbonic anhydrase 1): 0.044 µM
IC50 (Cholinesterase): 0.246 µM
IC50 (Carbonic anhydrase 2 [19]): 0.016 µM

Cc1c(Cc2ccccc2)c(=O)oc2cc(OS(N)(=O)=O)ccc12
IC50 (Steryl-sulfatase [12]): 0.008 µM
IC50 (Steryl-sulfatase [13]): 0.001 µM

NS(=O)(=O)Oc1ccc2nc(C=C3C4CC5CC(C4)CC3C5)oc2c1
IC50 (Steryl-sulfatase [20]): 0.00015 to 0.0318 µM
IC50 (Steryl-sulfatase [21]): 0.00015 to 0.0318 µM

COc1ccc(/C=C2/SC(Nc3ccc(OS(N)(=O)=O)cc3)=NC2=O)cc1
Ki (Carbonic anhydrase 9): 0.0176 to 0.0733 µM
Ki (Carbonic anhydrase 2 [1]): 0.0287 to 0.0843 µM
